Assay results: patent publication US20120010075A1 (priority 2009, published 2012)
Like-named read-outs stand apart in the source and are kept apart here.

Assays:
Phytophthora infestans [1] = assay type: in vivo, Phytophthora infestans on tomato (Outdoor Girl)
Alternaria solani = assay: Compound 16 and copper materials against tomato early blight (Example 37, Tables 17-20); assay type: in vivo, Alternaria solani on tomato (Outdoor Girl)
[2] = tested on: Colletotrichum lagenarium; assay: Compound 16 and copper materials against cucumber anthracnose (Example 37, Tables 21-24); assay type: in vivo, Colletotrichum lagenarium on cucumber (Bush Pickle)
[3] = tested on: Leptosphaeria nodorum (LEPTNO); assay: In vitro fungitoxicity of hydrazones with and without copper towards Leptosphaeria nodorum (Example 26); assay type: cell-based; conditions: 72 h at 25° C.; for LEPTNO % Inhn. Plus Copper Observed: copper-plus medium (CuCl2.2H2O)
Phytophthora infestans [4] = assay type: in vivo, Phytophthora infestans on tomato; conditions: hydrazone 50 ppm + 50 μM CuCl2.2H2O, applied 24 h before inoculation, assessed 7 days after inoculation, tomato
Phytophthora capsici = assay: In vitro fungitoxicity of hydrazones with and without copper towards Phytophthora capsici (Example 28, Table 3); assay type: cell-based; conditions: 48 h; for % Inhn Plus copper Observed: copper-plus AS medium (CuCl2, 50 μM)
[5] = tested on: Leptosphaeria nodorum (LEPTNO); assay: Isolated metal-hydrazone complexes versus parent hydrazones, in vitro, Leptosphaeria nodorum (Example 31, Table 7); assay type: cell-based; conditions: Parastagonospora nodorum; 0.1 μg/mL; copper-minus medium; 72 h
[6] = tested on: Leptosphaeria nodorum (glume blotch of wheat); assay: Cu-hydrazone complexes versus parent hydrazones against glume blotch of wheat (Example 32, Table 8); assay type: in vivo, Leptosphaeria nodorum on wheat (cultivar Yuma); conditions: Parastagonospora nodorum, 200 ppm spray, inoculated after 24 h
Ustilago maydis = assay: In vitro fungitoxicity of hydrazones with and without copper towards Ustilago maydis (Example 29, Table 4); assay type: cell-based; conditions: 1 μg/mL, 48 h
[7] = tested on: Septoria tritici isolate USA-184; assay: In vitro fungitoxicity of hydrazones with and without copper towards Septoria tritici (Example 30, Table 5); assay type: cell-based; conditions: Zymoseptoria tritici, 0.05 μg/mL
[8] = Phytophthora capsici, 0.039 μg/mL, copper-minus AS medium, read-out: % Inhn Minus copper Observed
[9] = Parastagonospora nodorum, 72 h, compound 0.05 μg/mL, copper-minus medium, read-out: LEPTNO % Inhn. Minus Copper Observed

Structure (SMILES)	TLB % Control (Phytophthora infestans [4]) [%]	% Inhn Plus copper Observed (Phytophthora capsici; 0.039 μg/mL) [%]	inhibition of growth at 0.039 µg/mL (Phytophthora capsici; [8]) [%]	inhibition at 0.1 µg/mL [5] [%]	pest or weed control at 200 ppm [6] [%]	inhibition of growth at 0.05 µg/mL [3, 9] [%]	LEPTNO % Inhn. Plus Copper Observed ([3]; compound 0.05 μg/mL) [%]	further results
O=C(N/N=C/c1cc(Cl)cc(Cl)c1O)c1ccccc1 [Compound 16]	–	–	–	–	–	–	–	% Control of Tomato Late Blight (Phytophthora infestans [1]; hydrazone 10 μM alone): 1.5%; % Control of Tomato Late Blight (Phytophthora infestans [1]; hydrazone 50 μM alone): 11.3%; % Control of Tomato Late Blight (Phytophthora infestans [1]; hydrazone 200 μM alone): 21.4%; % Control of Tomato Late Blight (Phytophthora infestans [1]; hydrazone 400 μM alone): 25.7%; % Control of Tomato Early Blight (Alternaria solani; hydrazone 10 μM alone): 3.9%; % Control of Tomato Early Blight (Alternaria solani; hydrazone 50 μM alone): 8%; % Control of Tomato Early Blight (Alternaria solani; hydrazone 200 μM alone): 28.4%; % Control of Tomato Early Blight (Alternaria solani; hydrazone 400 μM alone): 32.4%; % Control of Cucumber Anthracnose ([2]; hydrazone 10 μM alone): 10%; % Control of Cucumber Anthracnose ([2]; hydrazone 50 μM alone): 33.8%; % Control of Cucumber Anthracnose ([2]; hydrazone 200 μM alone): 63.8%; % Control of Cucumber Anthracnose ([2]; hydrazone 400 μM alone): 70.8%
O.O.[Cl][Cu][Cl] [CuCl2•2H2O]	–	–	–	–	–	–	–	% Control of Tomato Early Blight (Alternaria solani; copper material 10 μM alone): 0.0%; % Control of Tomato Early Blight (Alternaria solani; copper material 50 μM alone): 0.0%; % Control of Tomato Early Blight (Alternaria solani; copper material 200 μM alone): 50.4%; % Control of Tomato Early Blight (Alternaria solani; copper material 400 μM alone): 72.5%; % Control of Tomato Early Blight (Alternaria solani; copper material 800 μM alone): 83.3%; % Control of Cucumber Anthracnose ([2]; copper material 10 μM alone): 9.6%; % Control of Cucumber Anthracnose ([2]; copper material 50 μM alone): 1.4%; % Control of Cucumber Anthracnose ([2]; copper material 200 μM alone): 37.2%; % Control of Cucumber Anthracnose ([2]; copper material 400 μM alone): 76.2%; % Control of Cucumber Anthracnose ([2]; copper material 800 μM alone): 90.0%
O.O.O.O.O.O=S(=O)([O-])[O-].[Cu+2] [CuSO4•5H2O]	–	–	–	–	–	–	–	% Control of Tomato Early Blight (Alternaria solani; copper material 10 μM alone): 0.0%; % Control of Tomato Early Blight (Alternaria solani; copper material 50 μM alone): 7.1%; % Control of Tomato Early Blight (Alternaria solani; copper material 200 μM alone): 54.4%; % Control of Tomato Early Blight (Alternaria solani; copper material 400 μM alone): 64.1%; % Control of Tomato Early Blight (Alternaria solani; copper material 800 μM alone): 71.6%; % Control of Cucumber Anthracnose ([2]; copper material 10 μM alone): 1.4%; % Control of Cucumber Anthracnose ([2]; copper material 50 μM alone): 0.0%; % Control of Cucumber Anthracnose ([2]; copper material 200 μM alone): 61.3%; % Control of Cucumber Anthracnose ([2]; copper material 400 μM alone): 75.7%; % Control of Cucumber Anthracnose ([2]; copper material 800 μM alone): 87.1%
O=C(N/N=C/c1cc(Cl)cc(Cl)c1O)c1c(Cl)cccc1Cl [Example 43]	68.8	90.3	54.2	3.6	0	–	–	inhibition of growth at 0.156 µg/mL ([3]; Parastagonospora nodorum, 72 h, compound 0.156 μg/mL, copper-minus medium, read-out: LEPTNO % Inhn. Minus Copper Observed): 14.2%; LEPTNO % Inhn. Plus Copper Observed ([3]; compound 0.156 μg/mL): 75.4%; melting point: 250 to 252 °C
O=C(N/N=C/c1cc(Cl)cc(Cl)c1O)c1ccccc1O [Example 69]	90.8	–	–	32.4	25	19.3	96.9	% Inhn Plus copper Observed (Phytophthora capsici; 0.050 μg/mL): 87.6%; inhibition of growth at 0.05 µg/mL (Phytophthora capsici; Phytophthora capsici, 0.050 μg/mL, copper-minus AS medium, read-out: % Inhn Minus copper Observed): 0%; % Inhn. Plus copper Observed (Ustilago maydis; copper-plus medium (CuCl2, 10 μM)): 96.2%; inhibition of growth at 1 µg/mL (Ustilago maydis; Mycosarcoma maydis, copper-minus medium, read-out: % Inhn. Minus copper Observed): 0%; inhibition at 0.05 µg/mL ([7]; Colby formula, CuCl2, read-out: % Inhibition Plus copper Predicted): 0%; inhibition at 0.05 µg/mL ([7]; copper-minus medium, 90 h, read-out: % Inhibition Minus copper Observed): 0%; inhibition at 0.05 µg/mL ([7]; copper-plus medium CuCl2, 90 h, read-out: % Inhibition Plus copper Observed): 96.7%
O=C(N/N=C/c1cc(Cl)cc(Cl)c1O)c1cccc(Cl)c1 [Example 70]	93.1	–	–	29.4	0	19.6	98.2	–
O=C(N/N=C/c1cc(Cl)cc(Cl)c1O)c1ccc([N+](=O)[O-])cc1 [Example 76]	89.8	–	–	92.8	0	0	97.0	–
Cc1ccccc1C(=O)N/N=C/c1cc(Cl)cc(Cl)c1O [Example 77]	55.5	–	–	10.6	0	7.6	96.1	–
O=C(N/N=C/c1cc(Cl)cc(Cl)c1O)c1cc(Cl)ccc1Cl [Example 83]	60.6	96.2	27.9	27.9	38	5.9	98.0	melting point: 189 to 191 °C
O=C(N/N=C/c1cc(Cl)cc(Cl)c1O)c1ccccc1Br [Example 84]	83.6	95.0	47.5	6.7	37	5.6	95.5	–
O=C(N/N=C/c1cc(Cl)cc(Cl)c1O)c1ccccc1[N+](=O)[O-] [Example 96]	78.2	91.9	55.2	10.7	0	1.2	93.6	–
O=C(N/N=C/c1cc(Cl)cc(Cl)c1O)c1ccc(OC(F)(F)F)cc1 [Example 100]	74.2	88.8	10	24.7	0	8.2	97.0	melting point: 220 to 229 °C
